Test results from patent US12606541B2, “PPARg modulators and methods of use” (Eisai R&D Management Co., Ltd., priority 2020, dated 2026).

What was measured:
UM-UC-9 engineered cells = experiment: Cell proliferation / short-term viability assay, CellTiter-Glo 144 h; assay type: cell-based, human; settings: read-out: CTGlo 144 h UMUC9.5, G150
Method in brief: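 UM-UC-9 engineered assay-ready cells seeded at 500 cells/well in high-glucose DMEM/10% FBS, treated from dose-response plates, grown at 37° C, 5% CO2. CellTiter-Glo 2.0 luminescence read on day 7, with a day-0 pretreatment plate as T0 reference and DMSO wells as negative control.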

His6-TEV-PPARγ-(234-505) = biological target: T1, His6-TEV-PPARγ-(234-505) (Homo sapiens, UniProt P37231); experiment: TR-FRET Assay to Measure Co-R Peptide Recruitment to PPARγ; assay type: biochemical; settings: Co-R peptide (SMRT-ID2) recruitment; top final concentration 20 μM; read-out: TR-FRET i-Ag; AC50
T1 construct: The His6-TEV-PPARγ-(234-505) protein for assay was expressed and purified; TEV cleavage site (N); made in house
T1 sequence (P37231 234-505): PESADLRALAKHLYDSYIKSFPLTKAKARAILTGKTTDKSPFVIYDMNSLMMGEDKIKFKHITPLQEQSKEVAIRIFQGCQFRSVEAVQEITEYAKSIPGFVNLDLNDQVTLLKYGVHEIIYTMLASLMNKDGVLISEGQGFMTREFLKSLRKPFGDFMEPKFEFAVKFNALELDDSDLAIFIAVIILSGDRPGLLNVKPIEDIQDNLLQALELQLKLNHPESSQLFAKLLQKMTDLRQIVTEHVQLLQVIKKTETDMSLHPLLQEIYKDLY
Method in brief: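 His-tagged PPARγ (or controls) was preincubated with compound for 20 minutes at room temperature, then 5 nM anti-His terbium antibody and 200 nM FITC-labeled SMRT-ID2 corepressor peptide (final) were added for a further hour. TR-FRET signal was normalized to percent response using 500 nM T0070907 and DMSO controls.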

Row | Substance | IC50 (UM-UC-9 engineered cells) [nM] | AC50 (His6-TEV-PPARγ-(234-505)) [nM]
1 | (S)—N-((4S,7r)-3,3-difluoro-1-oxaspiro[3.5]nonan-7-yl)-4-(5-(5-fluoro-2-methoxypyridin-4-yl)-1H-pyrazole-3-carbonyl)-4-azaspiro[2.5]octane-7-carboxamide and (S)—N-((4R,7s)-3,3-difluoro-1-oxaspiro[3.5]nonan-7-yl)-4-(5-(5-fluoro-2-methoxypyridin-4-yl)-1H-pyrazole-3-carbonyl)-4-azaspiro[2.5]octane-7-carboxamide [Example 374] | 15.8 | 13.1
2 | (S)—N—((R)-1-(3-chloropyridin-2-yl)ethyl)-4-(5-(5-fluoro-2-methoxypyridin-4-yl)-1H-pyrazole-3-carbonyl)-4-azaspiro[2.5]octane-7-carboxamide and (S)—N—((S)-1-(3-chloropyridin-2-yl)ethyl)-4-(5-(5-fluoro-2-methoxypyridin-4-yl)-1H-pyrazole-3-carbonyl)-4-azaspiro[2.5]octane-7-carboxamide [Example 360] | 8.7 | 21.8
3 | (S)—N—((S)-1-(5-cyclopropyl-1,3,4-oxadiazol-2-yl)ethyl)-4-(5-(5-fluoro-2-methoxypyridin-4-yl)-1H-pyrazole-3-carbonyl)-4-azaspiro[2.5]octane-7-carboxamide and (S)—N—((R)-1-(5-cyclopropyl-1,3,4-oxadiazol-2-yl)ethyl)-4-(5-(5-fluoro-2-methoxypyridin-4-yl)-1H-pyrazole-3-carbonyl)-4-azaspiro[2.5]octane-7-carboxamide [Example 395] | 761 | 274
4 | (S)—N—((S)-3,4-dihydro-2H-pyrano[3,2-b]pyridin-4-yl)-4-(5-(5-fluoro-2-methoxypyridin-4-yl)-1H-pyrazole-3-carbonyl)-4-azaspiro[2.5]octane-7-carboxamide and (S)—N—((R)-3,4-dihydro-2H-pyrano[3,2-b]pyridin-4-yl)-4-(5-(5-fluoro-2-methoxypyridin-4-yl)-1H-pyrazole-3-carbonyl)-4-azaspiro[2.5]octane-7-carboxamide [Example 366] | 41.4 | 28.8
